Among the data in patent publication US12083101B2, “Biaryl derivatives as YAP/TAZ-TEAD protein-protein interaction inhibitors” (Novartis AG, priority 2020, dated 2024) are IC50 and GI50 values, retold here.

In general, GI50 refers to the concentration at which growth is held to half of that of the control.

Experiment [1] has as its target Avi-humanTEAD4 217-434 / Cy5 labeled humanYAP 60-100 (Homo sapiens (Human), UniProt Q15561). Put plainly: TR-FRET YAP-TEAD4 in-vitro biochemical assay. To be noted: 1 nM Avi-humanTEAD4 217-434, 20 nM Cy5-humanYAP 60-100, 1 h room temperature. In kind it is binding. On the technique in general: TR-FRET usually uses a lanthanide donor and a delayed reading to cut background.

The test system of experiment [2] is NCI-H2052 Tet-On shYAP_2371 pLenti6 MCAT_Luc cells (YAP-dependent transcription). Kind of experiment: YAP reporter gene activity assay (MCAT-luciferase), NCI-H2052. Type of experiment: cell-based. Conditions: 24 hours incubation, BrightGlo luminescence. In short, it runs like this:
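NCI-H2052 cells carrying an MCAT-luciferase reporter and a tetracycline-inducible YAP 3′UTR shRNA were treated with eleven 2-fold compound dilutions (0.1% DMSO) for 24 h at 37 °C. BrightGlo luminescence was background-subtracted and expressed as % of DMSO control. IC50 came from a four-parameter fit; MKN-45/Ubc-luc cells served as the specificity counterscreen.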
(In a reporter assay the amount or activity of a reporter protein is the signal.)

For experiment [3], the system named is NCI-H2052 Tet-On shYAP_2371 pLenti6 MCAT_Luc cells. Kind of experiment: Proliferation assay (resazurin), NCI-H2052. In kind it is cell-based. Conditions: 72 hours incubation. The procedure, abridged: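 The NCI-H2052 line carries a Tet-inducible shRNA against the YAP1 3′UTR and an MCAT luciferase reporter. The day after seeding, it received eleven 2-fold compound dilutions at 0.1% DMSO, and viability was read by resazurin fluorescence.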

In experiment [4] the test system is MKN-45/Ubc-luc cells. Put plainly: Proliferation assay (resazurin), MKN-45. In kind it is cell-based. To be noted: 72 hours incubation.
Experiment [5] deals with MKN-45/Ubc-luc cells. Kind of experiment: Reporter gene specificity control (Ubc-luciferase), MKN-45.
Method: As a specificity control, MKN-45 cells were stably transduced with a Ubc-Luc reporter construct, in which constitutive expression of firefly luciferase is driven by the promoter of the ubiquitin C housekeeping gene.
Stock solutions of compounds were prepared at a concentration of 10 mM in DMSO and stored at 4° C. Where necessary to afford a full dose-response curve, the stock solutions were pre-diluted in DMSO to 1'000-fold the desired reduced start concentration. On the day after cell seeding, eleven 2-fold serial dilutions of each compound were dispensed directly into the cell assay plates using a HP 300D non-contact Digital Dispenser (TECAN, Mannedorf, Switzerland). The final concentration of DMSO was normalized to 0.1% in all wells.
The ability of compounds to inhibit YAP-dependent transcription was assessed in NCI-H2052 Tet-On shYAP_2371 pLenti6 MCAT_Luc cells, while specificity (lack of unspecific inhibition of luciferase expression of activity) was assessed in MKN-45/Ubc-luc cells. […] Following incubation for 24 hours at 37° C., compound-mediated modulation of reporter-gene activity was quantified 5 min after addition of 20 μl BrightGlo (Promega, Cat #E2620), by measuring luminescence intensity on a multi-mode plate-reader (TECAN, Männedorf, Switzerland, Integration time 100 ms). For data analysis, the assay background value determined in wells containing medium, but no cells, was subtracted from all data points. Dose-dependent compound effects were expressed as % of vehicle-treated control (luminescence signal produced by cells receiving DMSO only) and IC50s calculated using a four-parametric fit model.
Where [6] appears, read: read-out: Reporter gene assay MKN-45 IC50, MKN-45/Ubc-luc cells (YAP deleted, specificity control), 24 hours incubation.
Setting [7] is: Homo sapiens, MKN-45, 24 h, read-out: Reporter gene assay MKN-45 IC50 [μM], MKN-45/Ubc-luc cells (YAP deleted, specificity control), 24 hours incubation.

Where two headings read alike, the source gives them in different places.

Sequence of Avi-humanTEAD4 217-434 / Cy5 labeled humanYAP 60-100 (Q15561 217-434): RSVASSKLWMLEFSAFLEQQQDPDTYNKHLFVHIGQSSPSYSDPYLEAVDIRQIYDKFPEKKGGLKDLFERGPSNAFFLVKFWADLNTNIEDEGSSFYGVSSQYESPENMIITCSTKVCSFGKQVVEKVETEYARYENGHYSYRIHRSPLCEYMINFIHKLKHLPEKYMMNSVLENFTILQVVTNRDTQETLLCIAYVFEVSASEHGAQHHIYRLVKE

With `COc1ccc(C(N)=O)c(-c2c(Cl)ccc3c2C[C@@](CN[C@H]2CC[C@@H](C(=O)O)CC2)(c2ccccc2)O3)c1F` (relative stereo) [Example 28b, (cis)-4-((((2S,4S)-4-(6-carbamoyl-2-fluoro-3-methoxyphenyl)-5-chloro-2-phenyl-2,3-dihydrobenzofuran-2-yl)methyl)amino)cyclohexanecarboxylic acid], the figures for the IC50 (in experiment [1]; in experiment [2]; with MKN-45/Ubc-luc cells [5] (setting [6])) were 3 nM, 55 nM and > 10 µM, respectively. Further, the GI50 in experiment [3] was 148 nM; in the experiment on MKN-45/Ubc-luc cells [4] it was > 10000 nM.

`NC[C@@]1(c2ccccc2)Cc2c(ccc(Cl)c2-c2c(F)cccc2C(N)=O)O1` (atropisomer, axis not shown) [Example 4a-1, 2-((2S,4S)-2-(aminomethyl)-5-chloro-2-phenyl-2,3-dihydrobenzofuran-4-yl)-3-fluorobenzamide]: the IC50 was 20 nM in experiment [1]; 600 nM in experiment [2] (Homo sapiens, NCI-H2052, 24 h); > 10 µM with MKN-45/Ubc-luc cells [5] (setting [7]). Besides, the 50% growth inhibitory concentration (GI50) in experiment [3] (Homo sapiens, NCI-H2052, 72 h) is 590 nM; with MKN-45/Ubc-luc cells [4] (Homo sapiens), > 10000 nM.

For `COc1ccc(C(N)=O)c(-c2c(C(F)(F)F)ccc3c2C[C@@](CN)(c2ccccc2)O3)c1` (atropisomer, axis not shown) [Example 128, 2-((2S,4R)-2-(Aminomethyl)-2-phenyl-5-(trifluoromethyl)-2,3-dihydrobenzofuran-4-yl)-4-methoxybenzamide], the IC50 in experiment [1] was 176 nM; in experiment [2] (Homo sapiens, NCI-H2052, 24 h), 5720 nM; in the experiment with MKN-45/Ubc-luc cells [5] (setting [7]) it was > 10 µM. The GI50 is 7050 nM in experiment [3] (Homo sapiens, NCI-H2052, 72 h) and > 10000 nM in the experiment on MKN-45/Ubc-luc cells [4] (Homo sapiens).

For `CC(C)(O)C1CC(NC[C@@]2(c3ccccc3)Cc3c(cc(F)c(Cl)c3-c3c(C(N)=O)ccc(OC(F)F)c3F)O2)C1` (single isomer, unassigned) [Example 62b], the IC50 in experiment [1] is 6 nM; in experiment [2], 54 nM; in the experiment with MKN-45/Ubc-luc cells [5] (setting [6]), > 10 µM. The GI50 is 89 nM in experiment [3] and > 10000 nM in the experiment on MKN-45/Ubc-luc cells [4].

Take `CNC[C@]1(c2ccccc2)Oc2cc(F)c(Cl)c(-c3c(C(=O)NC)cnc(OCCO)c3F)c2[C@@H]1C` (atropisomer, axis not shown) [Example 145, 4-((2S,3S,4S)-5-Chloro-6-fluoro-3-methyl-2-((methylamino)methyl)-2-phenyl-2,3-dihydrobenzofuran-4-yl)-5-fluoro-6-(2-hydroxyethoxy)-N-methylnicotinamide]: the IC50 in experiment [1] is 5 nM; in experiment [2] (Homo sapiens, NCI-H2052, 24 h), 46 nM; in the experiment with MKN-45/Ubc-luc cells [5] (setting [7]), > 20 µM. Besides, the concentration for 50% growth inhibition (GI50) in experiment [3] (Homo sapiens, NCI-H2052, 72 h) was 58 nM; in the experiment on MKN-45/Ubc-luc cells [4] (Homo sapiens), > 20000 nM.

Regarding `C[C@]1(O)CC[C@@H](NC[C@@]2(c3ccccc3)Cc3c(cc(F)c(Cl)c3-c3c(C(N)=O)ccc(-n4ccnc4)c3F)O2)CC1` (atropisomer, axis not shown) [Example 69b, 2-((2S,4S)-5-chloro-6-fluoro-2-((((cis)-4-hydroxy-4-methylcyclohexyl)amino)methyl)-2-phenyl-2,3-dihydrobenzofuran-4-yl)-3-fluoro-4-(1H-imidazol-1-yl)benzamide], the IC50 is 4 nM in experiment [1]; 114 nM in experiment [2] (Homo sapiens, NCI-H2052, 24 h); 7.8 µM in the experiment on MKN-45/Ubc-luc cells [5] (setting [7]). Besides, the GI50 in experiment [3] (Homo sapiens, NCI-H2052, 72 h) was found to be 171 nM; in the experiment on MKN-45/Ubc-luc cells [4] (Homo sapiens) it was 6700 nM.

In the case of `NC(=O)c1ccc(OCCO)c(F)c1-c1c(Cl)c(F)cc2c1C[C@@](CN[C@H]1C[C@H](C(F)F)C1)(c1ccccc1)O2` (relative stereo) [Example 140b, 2-((2S,4S)-5-chloro-2-((((trans)-3-(difluoromethyl)cyclobutyl)amino)methyl)-6-fluoro-2-phenyl-2,3-dihydrobenzofuran-4-yl)-3-fluoro-4-(2-hydroxyethoxy)benzamide], the IC50 in experiment [1] is 6 nM; in experiment [2] it was 28 nM; in the experiment with MKN-45/Ubc-luc cells [5] (setting [6]), > 10 µM. The values for the GI50 (in experiment [3]; with MKN-45/Ubc-luc cells [4]) were 29 nM and > 10000 nM, respectively.

On to `COc1ccc(C(N)=O)c(-c2c(Cl)ccc3c2C[C@@](CN)(c2ccccc2)O3)c1F` (single isomer, unassigned) [Example 5a], for which the IC50 in experiment [1] was 5 nM; in experiment [2], 130 nM; in the experiment on MKN-45/Ubc-luc cells [5] (setting [6]), > 20 µM. The GI50 in experiment [3] is 280 nM; with MKN-45/Ubc-luc cells [4], > 10000 nM.

Take `NC[C@@]1(c2ccccc2)Cc2c(cc(F)c(Cl)c2-c2c(C(N)=O)ccc(OC(F)F)c2F)O1` (atropisomer, axis not shown) [Example 35, 2-((2S,4S)-2-(aminomethyl)-5-chloro-6-fluoro-2-phenyl-2,3-dihydrobenzofuran-4-yl)-4-(difluoromethoxy)-3-fluorobenzamide]: the IC50 is 9 nM in experiment [1]; 276 nM in experiment [2] (Homo sapiens, NCI-H2052, 24 h); > 10 µM in the experiment with MKN-45/Ubc-luc cells [5] (setting [7]). Also, the concentration for 50% growth inhibition (GI50) is 310 nM in experiment [3] (Homo sapiens, NCI-H2052, 72 h) and > 10000 nM with MKN-45/Ubc-luc cells [4] (Homo sapiens).

As for `C[C@H](O)COc1ccc(C(N)=O)c(-c2c(Cl)c(F)cc3c2[C@H](C)[C@@](CN)(c2ccccc2)O3)c1F` (atropisomer, axis not shown) [Example 123, 2-((2S,3S,4S)-2-(Aminomethyl)-5-chloro-6-fluoro-3-methyl-2-phenyl-2,3-dihydrobenzofuran-4-yl)-3-fluoro-4-((S)-2-hydroxypropoxy)benzamide], the IC50 in experiment [1] is 2 nM; in experiment [2] (Homo sapiens, NCI-H2052, 24 h) it was 25 nM; with MKN-45/Ubc-luc cells [5] (setting [7]) it was > 10 µM. Further, the GI50 was 44 nM in experiment [3] (Homo sapiens, NCI-H2052, 72 h) and > 10000 nM with MKN-45/Ubc-luc cells [4] (Homo sapiens).

Regarding `C[C@H](O)COc1ccc(C#N)c(-c2c(Cl)c(F)cc3c2[C@H](C)[C@@](CN[C@H]2CC[C@](C)(O)CC2)(c2ccccc2)O3)c1F` (atropisomer, axis not shown) [Example 120, 2-((2S,3S,4S)-5-Chloro-6-fluoro-2-((((trans)-4-hydroxy-4-methylcyclohexyl)amino)methyl)-3-methyl-2-phenyl-2,3-dihydrobenzofuran-4-yl)-3-fluoro-4-((S)-2-hydroxypropoxy)benzonitrile], the IC50 is 3 nM in experiment [1]; 20 nM in experiment [2] (Homo sapiens, NCI-H2052, 24 h); > 10 µM in the experiment with MKN-45/Ubc-luc cells [5] (setting [7]). Further, the GI50 in experiment [3] (Homo sapiens, NCI-H2052, 72 h) was 22 nM; in the experiment with MKN-45/Ubc-luc cells [4] (Homo sapiens), > 10000 nM.

Regarding `COc1ccc(C(N)=O)c(-c2c(Cl)ccc3c2C[C@@](CN)(c2ccccc2F)O3)c1F` (atropisomer, axis not shown) [Example 31, 2-((2S,4S)-2-(Aminomethyl)-5-chloro-2-(2-fluorophenyl)-2,3-dihydrobenzofuran-4-yl)-3-fluoro-4-methoxybenzamide], the IC50 is 3 nM in experiment [1]; 343 nM in experiment [2] (Homo sapiens, NCI-H2052, 24 h); > 10 µM in the experiment on MKN-45/Ubc-luc cells [5] (setting [7]). Besides, the concentration for 50% growth inhibition (GI50) was 346 nM in experiment [3] (Homo sapiens, NCI-H2052, 72 h) and > 10000 nM in the experiment on MKN-45/Ubc-luc cells [4] (Homo sapiens).

With `C[C@H]1c2c(cc(F)c(Cl)c2-c2c(C(N)=O)ccc(OCCO)c2F)O[C@]1(CN[C@H]1CC[C@](C)(O)CC1)c1ccccc1` (atropisomer, axis not shown) [Example 117a, 2-((2S,3S,4S)-5-chloro-6-fluoro-2-((((trans)-4-hydroxy-4-methylcyclohexyl)amino)methyl)-3-methyl-2-phenyl-2,3-dihydrobenzofuran-4-yl)-3-fluoro-4-(2-hydroxyethoxy)benzamide], the IC50 was < 1 nM in experiment [1]; 15 nM in experiment [2] (Homo sapiens, NCI-H2052, 24 h); > 10 µM in the experiment with MKN-45/Ubc-luc cells [5] (setting [7]). Besides, the GI50 was 14 nM in experiment [3] (Homo sapiens, NCI-H2052, 72 h) and > 10000 nM in the experiment on MKN-45/Ubc-luc cells [4] (Homo sapiens).

Regarding `CNC[C@]1(c2ccccc2)Oc2cc(F)c(Cl)c(-c3c(C(N)=O)ccc(OCCO)c3F)c2[C@@H]1C` (atropisomer, axis not shown) [Example 110, 2-((2S,3S,4S)-5-Chloro-6-fluoro-3-methyl-2-((methylamino)methyl)-2-phenyl-2,3-dihydrobenzofuran-4-yl)-3-fluoro-4-(2-hydroxyethoxy)benzamide], the IC50 is 1 nM in experiment [1]; 14 nM in experiment [2] (Homo sapiens, NCI-H2052, 24 h); > 4 µM in the experiment with MKN-45/Ubc-luc cells [5] (setting [7]). Also, the GI50 in experiment [3] (Homo sapiens, NCI-H2052, 72 h) was 27 nM; with MKN-45/Ubc-luc cells [4] (Homo sapiens), > 4000 nM.

For the compound `CNC(=O)c1ccc(OC)c(F)c1-c1c(Cl)c(F)cc2c1C[C@](c1ccccc1)([C@@H]1CCCN1)O2` [Example 175, 2-((2S,4S)-5-Chloro-6-fluoro-2-phenyl-2-((S)-pyrrolidin-2-yl)-2,3-dihydrobenzofuran-4-yl)-3-fluoro-4-methoxy-N-methylbenzamide], the IC50 came to 4 nM in experiment [1], 62 nM in experiment [2] and 13 µM in the experiment with MKN-45/Ubc-luc cells [5] (setting [6]). Moreover, the GI50 is 50 nM in experiment [3] and 7000 nM with MKN-45/Ubc-luc cells [4].

For the compound `CC(=O)NC1CCC(NC[C@@]2(c3ccccc3)Cc3c(cc(F)c(Cl)c3-c3c(C(N)=O)ccc(OC(F)F)c3F)O2)CC1` (single isomer, unassigned) [Example 56a], the figures for the IC50 (in experiment [1]; in experiment [2]; with MKN-45/Ubc-luc cells [5] (setting [7])) were 2 nM, 70 nM and > 10 µM, respectively. Also, the GI50 was 195 nM in experiment [3] (Homo sapiens, NCI-H2052, 72 h) and > 10000 nM with MKN-45/Ubc-luc cells [4] (Homo sapiens).
